“Also recorded” adds a separate entry of the source.
B1: brain derived neurotrophic factor (protein, UniProt P23560 19-247, looked up)
Neurotrophic factor BDNF …: APMKEANIRGQGGLAYPGVRTHGTLESVNGPKAGSRGLTSLADTFEHVIEELLDEDQKVRPNEENNKDADLYTSRVMLSSQVPLEPPLLFLLEEYKNYLDAANMSMRVRRHSDPARRGELSVCDSISEWVTAADKKTAVDMSGGTVTVLEKVPVSKGQLKQYFYETKCNPMGYTKEGCRGIDKRHWNSQCRTTQSYVRALTMDSKKRIGWRFIRIDTSCVCTLTIKRGR

Assays:
Spiral ganglion neurons = assay: Spiral ganglion neurite growth in cultured explants; type: cell-based, mouse; conditions: P4 CBA/CaJ SGN explants, two days culture, neurofilament stain; imipramine 1 uM or 5 uM, BDNF 50 ng/ml; vs control
Protocol: Spiral ganglion neurons were isolated from P4 CBA/CaJ mouse cochlea and cultured with DMEM/F12 supplemented with N2 and B27 in a 37° C. incubator with 5% CO2 (control conditions)(FIG. 3A). For drug treatment, BDNF (50 ng/ml) (FIG. 3C) or imipramine (1 uM or 5 uM)(FIG. 3B or FIG. 3D) was added. Two days after culture, explants were immunostained with a neurofilament antibody.

cochlear function = assay: Cochlear function (ABR Wave 1, DPOAE) in vivo after synaptopathic noise exposure; design: species or system CBA/CaJ mice; conditions: vs saline-treated controls; for ABR Wave 1 amplitudes (neural response amplitudes): 52 wk / one year post noise
Protocol: (§1) Animals: Experiments were carried out in CBA/CaJ mice. CBA/CaJ is a useful reference for studies of both noise-induced and age-related hearing loss and to cochlear injury. […] J Assoc Res Otolaryngol. 2014 October; 15(5):721-38). With respect to aging, after normalizing for cochlear place and relative lifespan, the pace of age-related threshold elevation and SGN loss in CBA/CaJ looks remarkably like that seen in human data (Sergeyenko et al. (2013)). Thus, the strain is particularly appropriate to provide the optimization of bioassays and treatments for application to the human.
(§2) Noise Exposure: Noise exposure stimuli were generated by a waveform generator (Tucker-Davis WG1), bandpass filtered with >60 dB/octave slope (Frequency Devices), amplified (Crown D-75) and delivered (JBL compression driver) through an exponential horn extending into a small, reverberant exposure chamber. Exposures were delivered to awake animals held within small cells of a subdivided cage, one animal/cell, suspended directly below the horn of the sound-delivery loudspeaker. Noise calibration to target SPL was performed immediately before each exposure session. Sound pressure levels varied by <1 dB across all cells (Kujawa et al. (2006); Kujawa et al. (2009)).
Cochlear Function: Detailed techniques have been described in previous publications (Kujawa et al. (2006); Kujawa et al. (2009); Sergeyenko et al. (2013)). […]
Effects of noise on the cochlea and its interaction with age were assessed physiologically using outer hair cell-based distortion product otoacoustic emissions (DPOAEs) and neural-based auditory brainstem responses (ABRs, specifically, wave 1). Response thresholds and suprathreshold response growth functions were recorded in ketamine/xylazine-anesthetized mice. DPOAEs were measured in response to f1 and f2 primaries (f2/f1=1.2, f2=ABR test frequencies; L2=L1−10 dB). […] ABRs were recorded with 5 ms tone-pips (0.5 msec rise/fall, alternating polarity) for the same range of frequencies. Wave 1 thresholds and wave peak ratios were determined by custom offline analysis routines.

[1] = system: isolated SGNs and denervated organ of Corti; assay: Afferent synaptogenesis in co-culture of isolated SGNs and denervated organ of Corti; type: cell-based, mouse; conditions: P4/5 CBA/CaJ co-culture 6 days, amitriptyline 0.5 uM, vs untreated controls
Protocol: FIGS. 4A-B show amitriptyline induced cochlear afferent synaptogenesis. Isolated SGNs and denervated organ of Corti were extracted from P4/5 CBA/CaJ cochlea, the co-cultured for 6 days (see Brugeaud et al. (2014) Dev Neurobiol. April; 74(4):457-66 and Tong et al. (2013) J Assoc Res Otolaryngol. 14(3):321-9 for detailed methods). In some co-cultured explants, amitriptyline (AT; 0.5 uM) was added (4A, 4B). After culture, explants were fixed and immunostained with antibodies against neurofilament (green), CtBP2 (blue) and PSD-95 (red). Confocal images were taken in the IHC region. Newly generated afferent synapses were identified by juxtaposed CtBP2/PSD-95 puncta (yellow arrows).
The afferent innervation of hair cells is removed by physical ablation. At postnatal day four to six (P4-P6), the cochlea is dissected and transferred to Petri dishes. The inner and outer hair cells and surrounding supporting cells of the organ of Corti are separated from the SGN at the greater epithelial ridge with a surgical micro-blade, to obtain an intact sensory epithelium devoid of neurons. […] Formation of new synapses and growth of the fibers to contact hair cells is assessed by immunohistochemistry. […]

[2] = system: IHC synapses and spiral ganglion cells; assay: Cochlear synapse and ganglion cell counts in vivo after synaptopathic noise exposure; design: species or system CBA/CaJ mice; conditions: for synapses / cochlear synaptic counts: one year (52 wk) after synaptopathic noise exposure
Protocol: as §1, §2
Cochlear Tissue Processing and Analysis: Techniques for cochlear fixation, dissecting and immunostaining are described in prior publications, as are techniques for quantification of pre- and post-synaptic structures in highpower confocal z-stacks (Kujawa et al. (2009); Sergeyenko et al. (2013)). Briefly, deeply anesthetized mice were intracardially perfused, both cochleae were extracted, and the round and oval windows opened to allow intra-labyrinthine perfusion of the same fixative. One cochlea was processed for immunostained cochlear whole mounts and the other for plastic embedding. We triple stained for pre-synaptic ribbons (CtBP2), post-synaptic glutamate receptors (GluA2) and/or cochlear nerve terminals (Na+K+ATPase); myosin VIIA aided hair cell visualization. […] High-power, confocal image stacks were obtained at evenly spaced locations along the cochlear spiral, including regions of lesion focus. Given the stereotyped sectioning angle, these locations correspond roughly to the 6, 12, 22, 32, 45 and 64 kHz regions. At each locus, high-NA (1.3) objectives were used to obtain a complete confocal z-stack through the synaptic zones of all IHCs and OHCs. In each field, hair cells were counted under DIC optics, and expressed pre- and post-synaptic elements on a per hair cell basis. For afferent innervation, synaptic ribbons were counted in IHC areas, and percentages of ribbons with closely apposing glutamate receptor patches or terminals assessed, aided by the use of Amira software to enable a true 3-D analysis of the volumes of immunostained structures, and custom software to isolate the voxel space around each structure of interest.
For quantification of spiral ganglion cells, cochleae were additionally postfixed, decalcified and osmicated and embedded in EPON in a stereotyped orientation. Plastic-embedded, osmium-stained sections (10 μm) were cut in a roughly horizontal plane parallel to the modiolus. In each case, ganglion cell counts were made in the section precisely in the middle of each half turn, where the cutting angle is perpendicular to the spiral of Rosenthal's canal, at regions corresponding to the synapse counts. In each selected section, the area of Rosenthal's canal is traced, the number of ganglion cells within was counted, including only those cells with a visible nucleus and nucleolus, and the cell density is computed (cells/10,000 μm^2). All morphological analyses were performed by an individual having no knowledge of animal age or treatment, with subsets double counted by a second individual as a check for consistency. […]

| Molecule | spiral ganglion neurite growth (Spiral ganglion neurons) | ABR Wave 1 amplitudes (neural response amplitudes) (cochlear function) | ABR Wave 1 amplitudes (neural response amplitudes) (cochlear function; listed as AT) | DPOAE amplitudes (cochlear function; 52 wk post noise) | newly generated afferent synapses (juxtaposed CtBP2/PSD-95 puncta), synapse counts [1] | newly generated afferent synapses (juxtaposed CtBP2/PSD-95 puncta), synapse counts ([1]; listed as AT) | period of post-drug efficacy ([2]; initial results, compared to short-lived benefit of exogenously-applied neurotrophins) | synapses / cochlear synaptic counts ([2]; vs saline-treated controls) | synapses / cochlear synaptic counts ([2]; vs saline-treated controls, listed as AT) | ganglion cell counts ([2]; one year post excitotoxic noise, vs saline-treated controls) | synapses ([2]; short post-exposure times, vs saline treated controls) | effects with a single dose of drug ([2]; single dose, in vivo (FIG. 6)) |
| --- | --- | --- | --- | --- | --- | --- | --- | --- | --- | --- | --- | --- |
| CN(C)CCCN1c2ccccc2CCc2ccccc21 [imipramine] | promoted spiral ganglion neurite growth in a dose-dependent manner; also recorded: dose-responsive dendritic sprouting | – | – | – | – | – | – | – | – | – | – | – |
| CN(C)CCC=C1c2ccccc2CCc2ccccc21 [amitriptyline] | – | neural response amplitudes were larger | larger in AT-treated ears | not DPOAE amplitudes (5C) were larger | synaptogenesis; also recorded: new afferent synapses are generated | greater in AT-treated than in untreated controls | long period of post-drug efficacy | cochlear synaptic and ganglion cell counts were greater | persisting to at least one year after synaptopathic exposure | ganglion cell counts were greater | more synapses than saline treated controls | could be seen even with a single dose of drug |
| B1 | promoted neurite outgrowth | – | – | – | – | – | – | – | – | – | – | – |

— US20190022101A1, “Treating Cochlear Synaptopathy” (Massachusetts Eye and Ear Infirmary, priority 2016, published 2019)
